Assay results reported in PubChem BioAssay (NCI).
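Interpolation was linear, between the two tested concentrations surrounding the appropriate level; five concentrations were tested over 48 hours in 96-well plates. GI50 marks 50% less growth. The concentration for full growth arrest is given as TGI.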

What was measured:
Assay in all cases: NCI anticancer screen, dose series, 48 h
A549 NSCLC = system: A549 NSCLC
RPMI-8226 leukemia = system: RPMI-8226 leukemia
HL-60(TB) leukemia = system: HL-60(TB) leukemia
OVCAR-4 ovarian = system: OVCAR-4 ovarian
NCI-H460 lung = system: NCI-H460 lung
IGROV1 ovarian = system: IGROV1 ovarian
UACC-257 melanoma = system: UACC-257 melanoma
SF-295 CNS = system: SF-295 CNS
TK-10 renal = system: TK-10 renal
ACHN renal = system: ACHN renal

SMILES	TGI (A549 NSCLC)	TGI (RPMI-8226 leukemia)	TGI (HL-60(TB) leukemia)	TGI (OVCAR-4 ovarian)	TGI (NCI-H460 lung)	TGI (IGROV1 ovarian)	TGI (UACC-257 melanoma)	TGI (SF-295 CNS)	TGI (TK-10 renal)	TGI (ACHN renal)	GI50 (ACHN renal)	GI50 (A549 NSCLC)	GI50 (RPMI-8226 leukemia)	GI50 (HL-60(TB) leukemia)	GI50 (OVCAR-4 ovarian)	GI50 (NCI-H460 lung)	GI50 (IGROV1 ovarian)	GI50 (UACC-257 melanoma)	GI50 (SF-295 CNS)	GI50 (TK-10 renal)
O=C1c2ccccc2C2(O)NC(=S)N(c3ccccc3)C12O (stereo not given)	> 100 µM	> 100 µM	> 100 µM	> 100 µM	> 100 µM	> 100 µM	> 100 µM	> 100 µM	> 100 µM											
Cc1cccc(Cl)c1NC(=O)/C=C/c1ccccc1	> 100 µM	> 100 µM	> 100 µM	70.1 µM	> 100 µM	> 100 µM	> 100 µM	> 100 µM	> 100 µM	> 100 µM										
CCN=c1cc2sc3cc(NCC)c(C)cc3nc-2cc1C	10.9 µM	3.45 µM	8.48 µM	2.31 µM	5 µM	9.21 µM	6.55 µM	4.81 µM	6.94 µM	10.6 µM	1.58 µM	1.84 µM	0.233 µM	1.66 µM	0.237 µM	0.821 µM	2.4 µM	1.66 µM	0.669 µM	2.04 µM
c1ccc2c(c1)-c1ccccc1C2N1CC2CCC(CC2)C1	> 100 µM	46 µM	11.2 µM	> 100 µM	52.2 µM	69.8 µM	47.1 µM	38.1 µM	> 100 µM	53.4 µM										
CCC[CH2][Sn]([CH2]CCC)([O]C(=O)C(N)CSC)[O]C(=O)C(N)CSC (stereo not given)	> 79.7 µM	7.58 µM		26.1 µM	90.1 µM	34.2 µM	26.1 µM		21.5 µM	30.2 µM	12.3 µM	27.7 µM	2.16 µM		13 µM	29.7 µM	17.8 µM	11.8 µM		9.03 µM
CN1CCCCCC(=N\O)/C(=N/O)CCCCC1	> 100 µM		> 100 µM		> 100 µM	> 100 µM	> 100 µM	> 100 µM	> 100 µM	> 100 µM										
O=C(Nc1cc[c]([Sb](=[O])([OH])[OH])cc1)c1ccccc1	> 100 µM			> 100 µM	> 100 µM	> 100 µM		> 100 µM	> 100 µM	> 100 µM	> 100 µM	> 100 µM			> 100 µM	> 100 µM	> 100 µM		> 100 µM	> 100 µM
CC[Si](CC)(CC)OC[C@]1([C@@H]2COC(C)(C)O2)CC=CC(=O)O1	> 100 µM	65.6 µM		> 100 µM	> 100 µM		> 100 µM	> 100 µM	79 µM	> 100 µM	42.8 µM	30.4 µM	18.3 µM		85.8 µM	33.9 µM		32.2 µM	35.2 µM	24.2 µM
O=c1[nH]ccc2nc(N3CCC(O)CC3)nc(Nc3cccc(C(F)(F)F)c3)c12	> 100 µM	92 µM	5.06 µM	36.4 µM	15 µM		13 µM	7.85 µM	44.9 µM	84.7 µM	0.702 µM	3.83 µM	2.95 µM	0.863 µM	1.73 µM	1.62 µM		4.24 µM	2.94 µM	5.98 µM
Cc1cc(N2CCN(c3ccnc4cc(Cl)ccc34)CC2)nc(NC2CCCCC2)n1	4.48 µM	4.8 µM	5.32 µM	8.77 µM	3.71 µM	5.35 µM	3.92 µM	3.49 µM	3.54 µM			2.02 µM	1.85 µM	2.25 µM	2.08 µM	1.88 µM	2.35 µM	1.86 µM	1.72 µM	1.87 µM
O=c1ccnc2c1ccc1[nH]cccc12	> 100 µM		> 100 µM	> 100 µM	> 100 µM	> 100 µM	> 100 µM		> 100 µM	> 100 µM										
COc1ccc2cc3[n+](cc2c1OC)CCc1cc(O)c(O)cc1-3	> 100 µM	> 100 µM	> 100 µM	> 100 µM	> 100 µM	> 100 µM	> 100 µM	> 100 µM	> 100 µM											
CSc1nc(NC(=O)O)c(N(C(C)=O)C(=O)O)c(=O)n1C	> 100 µM	> 100 µM	> 100 µM	> 100 µM	> 100 µM	> 100 µM	> 100 µM	> 100 µM		> 100 µM										
NC(=N\N=C/c1cccc([N+](=O)[O-])c1)/C(N)=N\N=C/c1cccc([N+](=O)[O-])c1		> 100 µM	> 100 µM			> 100 µM	> 100 µM	> 100 µM	> 100 µM	> 100 µM	> 100 µM		> 100 µM	> 100 µM			> 100 µM	> 100 µM	> 100 µM	> 100 µM
O=C1NC(=S)NC(=O)C1=Cc1cccc2cc3ccccc3cc12	12.7 µM		5.67 µM	4.75 µM	4.82 µM	3.61 µM	3.37 µM	7.19 µM	3.48 µM	3.51 µM										
CN(C)CC/C(=N\Nc1ccccc1)c1ccccc1	> 100 µM	> 100 µM		32.4 µM		> 100 µM		6.89 µM	41.2 µM											
C=CCN(CC=C)C(=O)c1cc(C)nc2c1c(=O)n(-c1ccccc1)c(=O)n2CC(O)CN1CCN(c2ncccn2)CC1 (stereo not given)		> 100 µM	> 100 µM	> 100 µM	> 100 µM	> 100 µM		> 100 µM	> 100 µM	> 100 µM	> 100 µM		> 100 µM	> 100 µM	80.3 µM	26.7 µM	> 100 µM		> 100 µM	> 100 µM
